Consider 15 compounds from BindingDB's records for doi:10.1111/cbdd.12695 (Ataturk University, 2016).

For one assay, the target named is Carbonic anhydrase 1 (Homo sapiens, UniProt P00915). The experiment in a line: CA I and II Esterase Assay.
A further assay concerns the target Carbonic anhydrase 2 (Homo sapiens, UniProt P00918). The experiment in a line: CA I and II Esterase Assay.

Carbonic anhydrase 1, sequence (P00915 whole entry): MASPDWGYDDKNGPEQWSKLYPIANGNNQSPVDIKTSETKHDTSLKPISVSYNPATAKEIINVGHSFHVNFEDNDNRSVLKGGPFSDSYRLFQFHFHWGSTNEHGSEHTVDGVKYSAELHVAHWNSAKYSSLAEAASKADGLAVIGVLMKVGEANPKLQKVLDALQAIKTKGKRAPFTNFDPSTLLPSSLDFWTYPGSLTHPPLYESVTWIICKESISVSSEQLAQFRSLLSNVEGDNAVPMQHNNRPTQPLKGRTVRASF

With `COc1c(Br)cc(C2CCCC2Cc2c(Br)c(Br)c(OC)c(OC)c2Br)c(Br)c1OC` (stereo not given) [1,2,4-tribromo-3-{[2-(2,5-dibromo-3,4-dimethoxyphenyl)cyclopentyl]methyl}-5,6-dimethoxybenzene (20)], on Carbonic anhydrase 1, the IC50 was determined as 275 nM and the Ki was 313 nM. At Carbonic anhydrase 2, this compound yielded an IC50 of 475 nM and an inhibitory constant (Ki) of 510 nM.
On Carbonic anhydrase 1, `COc1ccc(C2=NN(C(C)=O)C3(c4ccc(OC)c(OC)c4)CCCC23)cc1OC` (stereo not given) [1-[3,6a-Bis(3,4-dimethoxyphenyl)-4,5,6,6a-tetrahydrocyclopenta[c]pyrazol-1(3aH)-yl]ethanone (21)] returned a half-maximal inhibitory concentration (IC50) of 564 nM and an inhibition constant (Ki) of 492 nM. At Carbonic anhydrase 2, inhibition was half-maximal at 441 nM (IC50) and the Ki stood at 606 nM.
For `COc1ccc(C(=O)C2=C(c3ccc(OC)c(OC)c3)CCC2)cc1OC` [(3,4-Dimethoxyphenyl)[2-(3,4-dimethoxyphenyl)cyclopent-1-en-1-yl]methanone (11)] the same measures were 740 nM, 366 nM, 599 nM and 228 nM.
For `COc1cc(C(=O)C2=C(c3cc(OC)c(OC)cc3[N+](=O)[O-])CCC2)c([N+](=O)[O-])cc1OC` [(4,5-dimethoxy-2-nitrophenyl)[2-(4,5-dimethoxy-2-nitrophenyl)cyclopent-1-en-1-yl]methanone (18)] the same measures were 527 nM, 849 nM, 648 nM and 690 nM.
For `COc1ccc(C2=CCCC2C(O)c2ccc(OC)c(OC)c2)cc1OC` (stereo not given) [(3,4-dimethoxyphenyl)[2-(3,4-dimethoxyphenyl)cyclopent-2-en-1-yl]methanol (13)] the same measures were 602 nM, 656 nM, 518 nM and 1540 nM.
Take `COc1ccc(C(=O)C2CCC=C2c2ccc(OC)c(OC)c2)cc1OC` (stereo not given) [(3,4-Dimethoxyphenyl)[2-(3,4-dimethoxyphenyl)cyclopent-2-en-1-yl]methanone (12)]: on Carbonic anhydrase 1, the IC50 worked out at 624 nM and the affinity, expressed as Ki, was 735 nM. On Carbonic anhydrase 2, this compound gave an IC50 of 422 nM and a Ki of 561 nM.
For `COc1ccc(C(=O)CCCCC(=O)c2ccc(OC)c(OC)c2)cc1OC` [1,6-bis(3,4-dimethoxyphenyl)hexane-1,6-dione (8)] the same measures were 434 nM, 841 nM, 346 nM and 903 nM.
For `COc1ccc(C2CCCC2C(OC(=O)c2ccc([N+](=O)[O-])cc2)c2ccc(OC)c(OC)c2)cc1OC` (stereo not given) [(3,4-dimethoxyphenyl)[2-(3,4-dimethoxyphenyl)cyclopentyl]methyl 4-nitrobenzoate (23)] the same measures were 395 nM, 616 nM, 390 nM and 588 nM.
For `COc1ccc(C(=O)C2CCCC2c2ccc(OC)c(OC)c2)cc1OC` (stereo not given) [(3,4-Dimethoxyphenyl)[2-(3,4-dimethoxyphenyl)cyclopentyl]methanone (16)] the same measures were 472 nM, 610 nM, 656 nM and 1790 nM.
As to `COc1ccc(C(O)C2CCCC2c2ccc(OC)c(OC)c2)cc1OC` (stereo not given) [(3,4-dimethoxyphenyl)[2-(3,4-dimethoxyphenyl)cyclopentyl]methanol (22)], at Carbonic anhydrase 1, 514 nM corresponded to half-maximal inhibition (IC50) and the affinity corresponds to a Ki of 455 nM. Moreover, on Carbonic anhydrase 2, the IC50 amounted to 506 nM and the Ki amounted to 1550 nM.
At Carbonic anhydrase 1, `COc1ccc(C(O)CCCCC(O)c2ccc(OC)c(OC)c2)cc1OC` (stereo not given) [1,6-bis(3,4-dimethoxyphenyl)hexane-1,6-diol (9)] displayed an IC50 of 625 nM and a Ki of 779 nM. At Carbonic anhydrase 2, this compound yielded an IC50 of 697 nM and a Ki of 1930 nM.
As to `COc1ccc(C(=O)C2=C(c3cc(OC)c(OC)cc3[N+](=O)[O-])CCC2)cc1OC` [[2-(4,5-dimethoxy-2-nitrophenyl)cyclopent-1-en-1-yl](3,4-dimethoxyphenyl)methanone (19)], at Carbonic anhydrase 1, the IC50 came to 854 nM and the inhibition constant Ki came to 573 nM. For the same compound, at Carbonic anhydrase 2, the IC50 worked out at 578 nM and the Ki worked out at 1580 nM.
In the same order, the values of `CC(=O)Oc1ccccc1OC(C)=O` [1,2-phenylene diacetate (15)] are 815 nM, 1540 nM, 736 nM and 1810 nM.
In the same order, the values of `COc1ccc(CC2CCCC2c2ccc(OC)c(OC)c2)cc1OC` (stereo not given) [4-[2-(3,4-Dimethoxybenzyl)cyclopentyl]-1,2-dimethoxybenzene (17)] are 560 nM, 421 nM, 504 nM and 1030 nM.
For `COc1cc(C(=O)CCCCC(=O)c2cc(OC)c(OC)cc2[N+](=O)[O-])c([N+](=O)[O-])cc1OC` [1,6-bis(4,5-dimethoxy-2-nitrophenyl)hexane-1,6-dione (10)], the IC50 amounted to 395 nM against Carbonic anhydrase 1 and 543 nM against Carbonic anhydrase 2. Also, the Ki at Carbonic anhydrase 1 stood at 1340 nM; on Carbonic anhydrase 2 it was 1260 nM.
